The results in this text go back to ChEMBL document CHEMBL3124876, “A perylene derivative regulates HIF-1α and Stat3 signaling pathways” (Bioorg Med Chem, 2014).

Molecules are shown by their SMILES. Activity calls are given as the source filed them. The calls are words filed in the database; no cut-off is given here.

For one data set, the system named is MCF7. As to the kind of experiment: Induction of apoptosis in human MCF7 cells assessed as reduction in cell viability at 8 uM after 12 to 48 hrs by MTT assay. In kind it is functional, cell-based. (In general: Tetrazolium assays rely on reduction of a dye to a coloured formazan, in cell work by metabolically active cells.)
The subject of the next data set is Mus musculus. Nature of the data set: Toxicity in Balb nu/nu mouse assessed as change in body weight at 2 mg/kg, ip administered every other day for 10 days measured after 19 days. It is filed as organism-based. Also noted: dose 2 mg/kg, route intraperitoneal. The settings on record: in vivo, 456 h.
Data set [1] has as its target Signal transducer and activator of transcription 3 (Homo sapiens) (UniProt P40763). Conditions: MDA-MB-468, 1 to 20 uM.
Description: Inhibition of Stat3 phosphorylation in human MDA-MB-468 cells assessed as inhibition of Bcl2 expression at 1 to 20 uM by Western blotting analysis in hypoxia condition
Data set [2] deals with Hypoxia-inducible factor 1-alpha (Homo sapiens) (UniProt Q16665). Nature of the data set: Inhibition of HIF-1 alpha in human PANC1 cells assessed as inhibition of Bcl2 expression at 1 to 20 uM by Western blotting analysis in hypoxia condition. In kind it is cell-based. The settings on record: PANC-1. (In general: Immunoblotting shows a protein as a band on a membrane.)
For a further data set, the system named is MDA-MB-468. Nature of the data set: Inhibition of HIF-1 in human MDA-MB-468 cells assessed as reduction of GLUT1 mRNA expression at 5 to 10 uM by RT-PCR analysis in hypoxia condition. In kind it is cell-based.
For data set [3], the target named is RAC-alpha serine/threonine-protein kinase (Homo sapiens) (UniProt P31749). As to the kind of experiment: Inhibition of AKT phosphorylation in human PANC1 cells at 1 to 20 uM by Western blotting analysis. Conditions: PANC-1. In kind it is cell-based.
Sequence of RAC-alpha serine/threonine-protein kinase (Homo sapiens) (P31749 whole entry): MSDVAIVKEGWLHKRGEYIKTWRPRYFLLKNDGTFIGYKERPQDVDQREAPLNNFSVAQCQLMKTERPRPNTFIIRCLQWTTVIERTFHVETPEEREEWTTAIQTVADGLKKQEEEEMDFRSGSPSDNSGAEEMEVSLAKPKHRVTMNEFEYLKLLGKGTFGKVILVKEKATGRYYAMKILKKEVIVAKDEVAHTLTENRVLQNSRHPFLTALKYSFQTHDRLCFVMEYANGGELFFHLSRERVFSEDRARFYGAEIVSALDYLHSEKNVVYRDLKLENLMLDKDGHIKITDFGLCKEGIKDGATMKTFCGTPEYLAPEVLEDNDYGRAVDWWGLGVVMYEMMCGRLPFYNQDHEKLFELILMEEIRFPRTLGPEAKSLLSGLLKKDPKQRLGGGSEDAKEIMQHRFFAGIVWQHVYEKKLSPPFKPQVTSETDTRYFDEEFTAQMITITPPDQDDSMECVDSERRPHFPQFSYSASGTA

Sequence of Hypoxia-inducible factor 1-alpha (Homo sapiens) (Q16665 whole entry, looked up): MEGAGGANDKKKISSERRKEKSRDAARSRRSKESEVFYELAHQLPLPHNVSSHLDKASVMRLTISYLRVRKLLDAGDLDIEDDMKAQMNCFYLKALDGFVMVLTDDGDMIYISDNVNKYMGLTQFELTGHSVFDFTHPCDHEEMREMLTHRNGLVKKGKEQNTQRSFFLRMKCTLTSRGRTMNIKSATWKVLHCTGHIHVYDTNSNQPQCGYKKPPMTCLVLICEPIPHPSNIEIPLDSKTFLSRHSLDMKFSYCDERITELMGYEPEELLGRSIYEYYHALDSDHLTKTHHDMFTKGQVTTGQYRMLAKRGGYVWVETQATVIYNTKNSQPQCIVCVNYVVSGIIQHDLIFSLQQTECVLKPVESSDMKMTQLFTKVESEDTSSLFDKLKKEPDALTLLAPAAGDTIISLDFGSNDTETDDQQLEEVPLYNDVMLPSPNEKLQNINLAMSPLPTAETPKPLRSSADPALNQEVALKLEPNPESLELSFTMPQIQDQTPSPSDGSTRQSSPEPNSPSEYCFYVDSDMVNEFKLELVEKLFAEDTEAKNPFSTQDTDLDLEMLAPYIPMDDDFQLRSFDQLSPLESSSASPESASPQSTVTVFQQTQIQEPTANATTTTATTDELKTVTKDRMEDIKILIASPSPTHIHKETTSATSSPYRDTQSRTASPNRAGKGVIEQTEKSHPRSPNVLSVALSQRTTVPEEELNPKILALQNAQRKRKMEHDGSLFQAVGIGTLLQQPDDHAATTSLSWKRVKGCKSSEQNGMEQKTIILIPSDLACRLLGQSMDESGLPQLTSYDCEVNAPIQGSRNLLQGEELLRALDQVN
Sequence of Signal transducer and activator of transcription 3 (Homo sapiens) (P40763 whole entry): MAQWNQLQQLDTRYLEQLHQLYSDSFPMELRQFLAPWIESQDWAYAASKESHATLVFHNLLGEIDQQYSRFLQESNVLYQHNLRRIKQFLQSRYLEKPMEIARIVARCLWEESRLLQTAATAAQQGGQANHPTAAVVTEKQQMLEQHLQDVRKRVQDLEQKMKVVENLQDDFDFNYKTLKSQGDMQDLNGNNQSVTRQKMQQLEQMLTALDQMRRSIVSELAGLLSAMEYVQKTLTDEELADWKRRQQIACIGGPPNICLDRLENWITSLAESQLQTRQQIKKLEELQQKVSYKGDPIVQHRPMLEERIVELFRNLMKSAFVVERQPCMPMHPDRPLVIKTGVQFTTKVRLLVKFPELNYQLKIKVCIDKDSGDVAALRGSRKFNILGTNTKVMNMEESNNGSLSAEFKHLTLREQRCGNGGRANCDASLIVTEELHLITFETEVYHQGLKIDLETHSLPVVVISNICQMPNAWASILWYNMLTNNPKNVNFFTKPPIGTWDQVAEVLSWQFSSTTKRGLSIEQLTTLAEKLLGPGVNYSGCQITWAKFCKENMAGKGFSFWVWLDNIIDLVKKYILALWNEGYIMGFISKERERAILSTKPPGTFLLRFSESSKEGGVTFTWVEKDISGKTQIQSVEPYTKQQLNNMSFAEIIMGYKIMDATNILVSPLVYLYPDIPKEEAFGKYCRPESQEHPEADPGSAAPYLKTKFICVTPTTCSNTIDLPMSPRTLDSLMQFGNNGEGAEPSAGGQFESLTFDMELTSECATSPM

Consider `CN(C)CCCN1C(=O)c2ccc3c4ccc5c6c(ccc(c7ccc(c2c37)C1=O)c64)C(=O)N(CCCN(C)C)C5=O`, for which the outcome in the data set on MCF7 was Active. The Activity entry with Mus musculus is “Non-toxic”. Further, the inhibition result (in data set [1]; in data set [2]; with MDA-MB-468) was “Active” in each case. The inhibition result in data set [3] is “inactive”.
